According to ChEMBL document CHEMBL4425161, “1α,2α-Epoxy-3β-hydroxy oleanolic acid derivatives regulation of the metabolism, haemolysis and β-lactamase gene expression in vitro and their structure-microbicidal activity relationship” (2016):
≈ marks a conversion by molar mass, not a printed value. Calls of active or inactive are those of the source. The calls are words filed in the database; no cut-off is given here.

Legend:
[1] = test system: Acinetobacter baumannii; experiment: Downregulation of PER gene expression in Acinetobacter baumannii ATCC BAA-1710D at 50 umol/L after 8 hrs by semi-quantitative RT-PCR; format: functional, organism-based
[2] = test system: Acinetobacter baumannii; experiment: Downregulation of GES gene expression in Acinetobacter baumannii ATCC BAA-1710D at 50 umol/L after 8 hrs by real time RT-PCR; format: functional, organism-based
[3] = test system: Acinetobacter baumannii; experiment: Upregulation of TEM gene expression in Acinetobacter baumannii ATCC BAA-1710D at 50 umol/L after 8 hrs by semi-quantitative RT-PCR; format: functional, organism-based
[4] = test system: Acinetobacter baumannii; experiment: Downregulation of PER gene expression in Acinetobacter baumannii ATCC BAA-1710D at 50 umol/L after 8 hrs by real time RT-PCR; format: functional, organism-based
[5] = test system: Klebsiella pneumoniae; experiment: Antibacterial activity against Klebsiella pneumoniae ATCC BAA-1705 assessed as bacterial growth inhibition after 8 hrs by turbidimetric plate reader method; format: functional; conditions: for MBC: ATCC BAA-1705, 8 h
[6] = test system: Acinetobacter baumannii; experiment: Upregulation of SHV gene expression in Acinetobacter baumannii ATCC BAA-1710D at 50 umol/L after 8 hrs by real time RT-PCR; format: functional, organism-based
[7] = test system: Acinetobacter baumannii; experiment: Upregulation of VEB gene expression in Acinetobacter baumannii ATCC BAA-1710D at 50 umol/L after 8 hrs by semi-quantitative RT-PCR; format: functional, organism-based
[8] = test system: Acinetobacter baumannii; experiment: Downregulation of GES gene expression in Acinetobacter baumannii ATCC BAA-1710D at 50 umol/L after 8 hrs by semi-quantitative RT-PCR; format: functional, organism-based
[9] = test system: Acinetobacter baumannii; experiment: Antibacterial activity against Acinetobacter baumannii ATCC BAA-1710D assessed as bacterial growth inhibition after 8 hrs by turbidimetric plate reader method; format: functional
[10] = test system: Acinetobacter baumannii; experiment: Upregulation of SHV gene expression in Acinetobacter baumannii ATCC BAA-1710D at 50 umol/L after 8 hrs by semi-quantitative RT-PCR; format: functional, organism-based
[11] = test system: Escherichia coli; experiment: Antibacterial activity against Escherichia coli ATCC 25922 assessed as bacterial growth inhibition after 8 hrs by turbidimetric plate reader method; format: functional; conditions: for MBC: ATCC 25922, 8 h
[12] = test system: Acinetobacter baumannii; experiment: Upregulation of TEM gene expression in Acinetobacter baumannii ATCC BAA-1710D at 50 umol/L after 8 hrs by real time RT-PCR; format: functional, organism-based
[13] = test system: Acinetobacter baumannii; experiment: Upregulation of VEB gene expression in Acinetobacter baumannii ATCC BAA-1710D at 50 umol/L after 8 hrs by real time RT-PCR; format: functional, organism-based
[14] = test system: Acinetobacter baumannii; experiment: Antibacterial activity against Acinetobacter baumannii ATCC BAA-1710D assessed as bacterial growth inhibition at 50 umol/L after 8 hrs by turbidimetric plate reader method; format: functional, organism-based
[15] = test system: Acinetobacter baumannii; experiment: Upregulation of CARB gene expression in Acinetobacter baumannii ATCC BAA-1710D at 50 umol/L after 8 hrs by real time RT-PCR; format: functional, organism-based
[16] = test system: Acinetobacter baumannii; experiment: Upregulation of CARB gene expression in Acinetobacter baumannii ATCC BAA-1710D at 50 umol/L after 8 hrs by semi-quantitative RT-PCR; format: functional, organism-based
[17] = test system: Bacillus subtilis; experiment: Antibacterial activity against Bacillus subtilis ATCC 6051 assessed as bacterial growth inhibition after 8 hrs by turbidimetric plate reader method; format: functional; conditions: for MBC: ATCC 6051, 8 h
[18] = test system: Klebsiella pneumoniae; experiment: Upregulation of PER-2 gene expression in Klebsiella pneumoniae ATCC BAA-1705 at 50 umol/L after 8 hrs by real time RT-PCR; format: functional, organism-based
[19] = test system: Klebsiella pneumoniae; experiment: Antibacterial activity against Klebsiella pneumoniae ATCC BAA-1705 assessed as bacterial growth inhibition at 50 umol/L after 8 hrs by turbidimetric plate reader method; format: functional, organism-based
[20] = test system: Klebsiella pneumoniae; experiment: Upregulation of GES gene expression in Klebsiella pneumoniae ATCC BAA-1705 at 50 umol/L after 8 hrs by semi-quantitative RT-PCR; format: functional, organism-based
[21] = test system: Klebsiella pneumoniae; experiment: Downregulation of ldhD gene expression in Klebsiella pneumoniae ATCC BAA-1705 at 50 umol/L after 8 hrs by semi-quantitative RT-PCR; format: functional, organism-based
[22] = test system: Klebsiella pneumoniae; experiment: Downregulation of ldhD gene expression in Klebsiella pneumoniae ATCC BAA-1705 at 50 umol/L after 8 hrs by real time RT-PCR; format: functional, organism-based
[23] = test system: Klebsiella pneumoniae; experiment: Upregulation of VEB gene expression in Klebsiella pneumoniae ATCC BAA-1705 at 50 umol/L after 8 hrs by semi-quantitative RT-PCR; format: functional, organism-based
[24] = test system: Klebsiella pneumoniae; experiment: Upregulation of IMP gene expression in Klebsiella pneumoniae ATCC BAA-1705 at 50 umol/L after 8 hrs by semi-quantitative RT-PCR; format: functional, organism-based
[25] = test system: Klebsiella pneumoniae; experiment: Upregulation of VEB gene expression in Klebsiella pneumoniae ATCC BAA-1705 at 50 umol/L after 8 hrs by real time RT-PCR; format: functional, organism-based
[26] = test system: Klebsiella pneumoniae; experiment: Upregulation of IMP gene expression in Klebsiella pneumoniae ATCC BAA-1705 at 50 umol/L after 8 hrs by real time RT-PCR; format: functional, organism-based
[27] = test system: Klebsiella pneumoniae; experiment: Upregulation of GES gene expression in Klebsiella pneumoniae ATCC BAA-1705 at 50 umol/L after 8 hrs by real time RT-PCR; format: functional, organism-based
[28] = test system: Klebsiella pneumoniae; experiment: Upregulation of PER-2 gene expression in Klebsiella pneumoniae ATCC BAA-1705 at 50 umol/L after 8 hrs by semi-quantitative RT-PCR; format: functional, organism-based
[29] = test system: Escherichia coli; experiment: Downregulation of tsh gene expression in Escherichia coli ATCC 25922 at 50 umol/L after 8 hrs by semi-quantitative RT-PCR; format: functional, organism-based
[30] = test system: Bacillus subtilis; experiment: Downregulation of yqhB gene expression in Bacillus subtilis ATCC 6051 at 50 umol/L after 8 hrs by real time RT-PCR; format: functional, organism-based
[31] = test system: Bacillus subtilis; experiment: Antibacterial activity against Bacillus subtilis ATCC 6051 assessed as bacterial growth inhibition at 50 umol/L after 8 hrs by turbidimetric plate reader method; format: functional, organism-based
[32] = test system: Bacillus subtilis; experiment: Downregulation of yqhC gene expression in Bacillus subtilis ATCC 6051 at 50 umol/L after 8 hrs by real time RT-PCR; format: functional, organism-based
[33] = test system: Bacillus subtilis; experiment: Downregulation of yhdT gene expression in Bacillus subtilis ATCC 6051 at 50 umol/L after 8 hrs by semi-quantitative RT-PCR; format: functional, organism-based
[34] = test system: Escherichia coli; experiment: Upregulation of cysB gene expression in Escherichia coli ATCC 25922 at 50 umol/L after 8 hrs by real time RT-PCR; format: functional, organism-based
[35] = test system: Escherichia coli; experiment: Upregulation of acrA gene expression in Escherichia coli ATCC 25922 at 50 umol/L after 8 hrs by real time RT-PCR relative to gapA; format: functional, organism-based
[36] = test system: Bacillus subtilis; experiment: Downregulation of yhdT gene expression in Bacillus subtilis ATCC 6051 at 50 umol/L after 8 hrs by real time RT-PCR; format: functional, organism-based
[37] = test system: Bacillus subtilis; experiment: Downregulation of yqhC gene expression in Bacillus subtilis ATCC 6051 at 50 umol/L after 8 hrs by semi-quantitative RT-PCR; format: functional, organism-based
[38] = test system: Escherichia coli; experiment: Antibacterial activity against Escherichia coli ATCC 25922 assessed as bacterial growth inhibition at 50 umol/L after 8 hrs by turbidimetric plate reader method; format: functional, organism-based
[39] = test system: Escherichia coli; experiment: Downregulation of tsh gene expression in Escherichia coli ATCC 25922 at 50 umol/L after 8 hrs by real time RT-PCR; format: functional, organism-based
[40] = test system: Escherichia coli; experiment: Upregulation of cysB gene expression in Escherichia coli ATCC 25922 at 50 umol/L after 8 hrs by semi-quantitative RT-PCR; format: functional, organism-based
[41] = test system: Bacillus subtilis; experiment: Downregulation of yqhB gene expression in Bacillus subtilis ATCC 6051 at 50 umol/L after 8 hrs by semi-quantitative RT-PCR; format: functional, organism-based
[42] = test system: Escherichia coli; experiment: Downregulation of iroD gene expression in Escherichia coli ATCC 25922 at 50 umol/L after 8 hrs by real time RT-PCR; format: functional, organism-based
[43] = test system: Escherichia coli; experiment: Upregulation of acrA gene expression in Escherichia coli ATCC 25922 at 50 umol/L after 8 hrs by semi-quantitative RT-PCR; format: functional, organism-based
[44] = test system: Escherichia coli; experiment: Downregulation of iroD gene expression in Escherichia coli ATCC 25922 at 50 umol/L after 8 hrs by semi-quantitative RT-PCR; format: functional, organism-based

CC(=O)O[C@H]1[C@@H]2O[C@@H]2[C@]2(C)[C@H]3CC=C4[C@@H]5CC(C)(C)CC[C@]5(C(=O)O)CC[C@@]4(C)[C@]3(C)CC[C@H]2C1(C)C
Activity [1]: Active
Activity [2]: Active
Activity [3]: Active
Activity [4]: Active
growth inhibition (GI) [5]: Dose-dependent effect
Activity [6]: Active
Activity [7]: Active
Activity [8]: Active
MBC [9]: 2.8 µM (≈ 1.44 µg/mL)
growth inhibition (GI) [9]: Dose-dependent effect
Activity [10]: Active
growth inhibition (GI) [11]: Dose-dependent effect
Activity [12]: Active
Activity [13]: Active
growth inhibition (GI) [14]: Active
Activity [15]: Active
Activity [16]: Active
growth inhibition (GI) [17]: Dose-dependent effect

CCCOC(=O)[C@]12CCC(C)(C)C[C@H]1C1=CC[C@@H]3[C@@]4(C)[C@H]5O[C@H]5[C@H](O)C(C)(C)[C@@H]4CC[C@@]3(C)[C@]1(C)CC2
Activity [18]: Active
growth inhibition (GI) [19]: Active
Activity [20]: inactive
growth inhibition (GI) [5]: Dose-dependent effect
MBC [5]: 1.5 µM (≈ 0.769 µg/mL)
Activity [21]: Active
Activity [22]: Active
growth inhibition (GI) [9]: Dose-dependent effect
Activity [23]: Active
Activity [24]: Active
growth inhibition (GI) [11]: Dose-dependent effect
Activity [25]: Active
Activity [26]: Active
Activity [27]: inactive
Activity [28]: Active
growth inhibition (GI) [17]: Dose-dependent effect

CCOC(=O)[C@]12CCC(C)(C)C[C@H]1C1=CC[C@@H]3[C@@]4(C)[C@H]5O[C@H]5[C@H](O)C(C)(C)[C@@H]4CC[C@@]3(C)[C@]1(C)CC2
Activity [18]: Active
growth inhibition (GI) [19]: Active
Activity [20]: inactive
growth inhibition (GI) [5]: Dose-dependent effect
MBC [5]: 1.8 µM (≈ 0.898 µg/mL)
Activity [21]: Active
Activity [22]: Active
growth inhibition (GI) [9]: Dose-dependent effect
Activity [23]: Active
Activity [24]: Active
growth inhibition (GI) [11]: Dose-dependent effect
Activity [25]: Active
Activity [26]: Active
Activity [27]: inactive
Activity [28]: Active
growth inhibition (GI) [17]: Dose-dependent effect

CC1(C)CC[C@]2(C(=O)OCc3ccccc3C#N)CC[C@]3(C)C(=CC[C@@H]4[C@@]5(C)[C@H]6O[C@H]6[C@H](O)C(C)(C)[C@@H]5CC[C@]43C)[C@@H]2C1
Activity [29]: Active
Activity [30]: Active
growth inhibition (GI) [31]: Active
Activity [32]: Active
Activity [33]: Active
Activity [34]: Active
Activity [35]: Active
growth inhibition (GI) [5]: Dose-dependent effect
growth inhibition (GI) [9]: Dose-dependent effect
Activity [36]: Active
Activity [37]: Active
growth inhibition (GI) [11]: Dose-dependent effect
MBC [11]: 5.3 µM (≈ 3.1 µg/mL)
growth inhibition (GI) [38]: Active
Activity [39]: Active
Activity [40]: Active
Activity [41]: Active
Activity [42]: Active
Activity [43]: Active
growth inhibition (GI) [17]: Dose-dependent effect
MBC [17]: 2 µM (≈ 1.17 µg/mL)
Activity [44]: Active

NC[C@H]1O[C@H](O[C@H]2[C@H](O)[C@@H](O[C@H]3O[C@H](CO)[C@@H](O)[C@H](N)[C@H]3O)[C@H](N)C[C@@H]2N)[C@H](O)[C@@H](O)[C@@H]1O [KANAMYCIN]
MBC [9]: 1.6 µM (≈ 0.775 µg/mL)

CN[C@@H]1[C@H](O[C@H]2[C@H](O[C@H]3[C@H](O)[C@@H](O)[C@H](N=C(N)N)[C@@H](O)[C@@H]3N=C(N)N)O[C@@H](C)[C@]2(O)C=O)O[C@@H](CO)[C@H](O)[C@H]1O [STREPTOMYCIN]
MBC [5]: 1.3 µM (≈ 0.756 µg/mL)
MBC [17]: 2.1 µM (≈ 1.22 µg/mL)

CC1(C)S[C@@H]2[C@H](NC(=O)[C@H](N)c3ccccc3)C(=O)N2[C@H]1C(=O)O [AMPICILLIN]
MBC [11]: 1.8 µM (≈ 0.629 µg/mL)

CO[C@H]1[C@@H]2O[C@@H]2[C@]2(C)[C@H]3CC=C4[C@@H]5CC(C)(C)CC[C@]5(C(=O)O)CC[C@@]4(C)[C@]3(C)CC[C@H]2C1(C)C
growth inhibition (GI) [19]: inactive
growth inhibition (GI) [31]: inactive
growth inhibition (GI) [38]: inactive
growth inhibition (GI) [14]: inactive
